Reference: patent US11834434B2, “Substituted 2-heteroaryloxypyridines and salts thereof and their use as herbicidal agents” (Bayer Aktiengesellschaft, priority 2018, dated 2023)

Assays:
Format in all cases: in vivo
[1] = test system: Amaranthus retroflexus (AMARE); test: Post-emergence herbicidal action against Amaranthus retroflexus; settings: 1280 g/ha; rated visually after about 3 weeks vs untreated controls; 100% = plants have died, 0% = like control plants
Method in brief: (§1)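 Weeds sown in sandy loam, grown in greenhouse and treated at one-leaf stage (2–3 weeks after sowing) with WP or EC formulations as aqueous spray plus 0.5% additive at 600 L/ha water. Application rate 1280 g/ha. Visual rating after about 3 weeks versus untreated controls (100% = plants dead, 0% = like control).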

[2] = test system: Setaria viridis (SETVI); test: Pre-emergence herbicidal action against Setaria viridis; settings: 1280 g/ha; scored visually after about 3 weeks vs untreated controls; 100% = plants have died, 0% = like control plants
Method in brief: (§2)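 Activity is a visually scored percentage relative to untreated controls, taken about 3 weeks after treatment in a greenhouse. Test compounds, formulated as wettable powders or emulsion concentrates with 0.5% additive, were applied at 1280 g/ha in 600 L/ha water onto soil covering freshly sown seeds.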

[3] = test system: Poa annua (POAAN); test: Pre-emergence herbicidal action against Poa annua; settings: 1280 g/ha; scored visually after about 3 weeks vs untreated controls; 100% = plants have died, 0% = like control plants
Method in brief: as §2

[4] = test system: Echinochloa crus-galli (ECHCG); test: Post-emergence herbicidal action against Echinochloa crus-galli; settings: 1280 g/ha; rated visually after about 3 weeks vs untreated controls; 100% = plants have died, 0% = like control plants
Description: (§3) Seeds of mono- and dicotyledonous weed plants were placed in plastic pots in sandy loam soil (doubly sown with in each case one species of mono- or dicotyledonous weed plants per pot), covered with soil and cultivated in a greenhouse under controlled growth conditions. 2 to 3 weeks after sowing, the test plants were treated at the one-leaf stage. The compounds of the invention, formulated in the form of wettable powders (WP) or as emulsion concentrates (EC), were applied onto the green parts of the plants as aqueous suspension or emulsion with addition of 0.5% additive at a water application rate of 600 liters per hectare (converted). After the test plants had been kept in the greenhouse under optimum growth conditions for about 3 weeks, the activity of the preparations was rated visually in comparison to untreated controls. For example, 100% activity=the plants have died, 0% activity=like control plants. Tables B1 to B8 below show the effects of selected compounds of the general formula (I) according to Table 1 on various harmful plants and an application rate corresponding to 1280 g/ha, which were obtained by the experimental procedure mentioned above.

[5] = test system: Abutilon theophrasti (ABUTH); test: Pre-emergence herbicidal action against Abutilon theophrasti; settings: 1280 g/ha; scored visually after about 3 weeks vs untreated controls; 100% = plants have died, 0% = like control plants
Method in brief: as §2

[6] = test system: Stellaria media (STEME); test: Pre-emergence herbicidal action against Stellaria media; settings: 1280 g/ha; scored visually after about 3 weeks vs untreated controls; 100% = plants have died, 0% = like control plants
Method in brief: as §2

[7] = test system: Stellaria media (STEME); test: Post-emergence herbicidal action against Stellaria media; settings: 1280 g/ha; rated visually after about 3 weeks vs untreated controls; 100% = plants have died, 0% = like control plants
Method in brief: as §1

[8] = test system: Matricaria inodora (MATIN); test: Pre-emergence herbicidal action against Matricaria inodora; settings: 1280 g/ha; scored visually after about 3 weeks vs untreated controls; 100% = plants have died, 0% = like control plants
Method in brief: as §2

[9] = test system: Lolium rigidum (LOLRI); test: Pre-emergence herbicidal action against Lolium rigidum; settings: 1280 g/ha; scored visually after about 3 weeks vs untreated controls; 100% = plants have died, 0% = like control plants
Method in brief: as §2

[10] = test system: Echinochloa crus-galli (ECHCG); test: Pre-emergence herbicidal action against Echinochloa crus-galli; settings: 1280 g/ha; scored visually after about 3 weeks vs untreated controls; 100% = plants have died, 0% = like control plants
Method in brief: as §2

[11] = test system: Matricaria inodora (MATIN); test: Post-emergence herbicidal action against Matricaria inodora; settings: 1280 g/ha; rated visually after about 3 weeks vs untreated controls; 100% = plants have died, 0% = like control plants; column head prints STEME
Description: as §3

[12] = test system: Amaranthus retroflexus (AMARE); test: Pre-emergence herbicidal action against Amaranthus retroflexus; settings: 1280 g/ha; scored visually after about 3 weeks vs untreated controls; 100% = plants have died, 0% = like control plants
Method in brief: as §2

[13] = test system: Abutilon theophrasti (ABUTH); test: Post-emergence herbicidal action against Abutilon theophrasti; settings: 1280 g/ha; rated visually after about 3 weeks vs untreated controls; 100% = plants have died, 0% = like control plants
Description: as §3

[14] = test system: Poa annua (POAAN); test: Post-emergence herbicidal action against Poa annua; settings: 1280 g/ha; rated visually after about 3 weeks vs untreated controls; 100% = plants have died, 0% = like control plants
Method in brief: as §1

SMILES: Cc1cc(C)c(Cc2ccc(F)cc2)c(Oc2ncc(F)cn2)n1 [Example I-479]
- Post-emergence action against Amaranthus retroflexus (AMARE) [1]: 100%
- Pre-emergence action against Setaria viridis (SETVI) [2]: 100%
- Pre-emergence action against Poa annua (POAAN) [3]: 100%
- Post-emergence action against Echinochloa crus-galli (ECHCG) [4]: 100%
- Pre-emergence action against Abutilon theophrasti (ABUTH) [5]: 100%
- Pre-emergence action against Stellaria media (STEME) [6]: 100%
- Post-emergence action against Stellaria media (STEME) [7]: 100%
- Pre-emergence action against Matricaria inodora (MATIN) [8]: 100%
- Pre-emergence action against Lolium rigidum (LOLRI) [9]: 100%
- Pre-emergence action against Echinochloa crus-galli (ECHCG) [10]: 100%
- Post-emergence action against Matricaria inodora (MATIN) [11]: 100%
- Pre-emergence action against Amaranthus retroflexus (AMARE) [12]: 100%
- Post-emergence action against Abutilon theophrasti (ABUTH) [13]: 100%
- Post-emergence action against Poa annua (POAAN) [14]: 100%

SMILES: COc1cccc(Cc2c(C)cc(C)nc2Oc2ncc(F)cn2)c1 [Example I-484]
- Post-emergence action against Amaranthus retroflexus (AMARE) [1]: 100%
- Pre-emergence action against Setaria viridis (SETVI) [2]: 100%
- Pre-emergence action against Poa annua (POAAN) [3]: 100%
- Post-emergence action against Echinochloa crus-galli (ECHCG) [4]: 100%
- Pre-emergence action against Abutilon theophrasti (ABUTH) [5]: 100%
- Pre-emergence action against Stellaria media (STEME) [6]: 100%
- Post-emergence action against Stellaria media (STEME) [7]: 100%
- Pre-emergence action against Matricaria inodora (MATIN) [8]: 100%
- Pre-emergence action against Lolium rigidum (LOLRI) [9]: 100%
- Pre-emergence action against Echinochloa crus-galli (ECHCG) [10]: 100%
- Post-emergence action against Matricaria inodora (MATIN) [11]: 100%
- Pre-emergence action against Amaranthus retroflexus (AMARE) [12]: 100%
- Post-emergence action against Abutilon theophrasti (ABUTH) [13]: 100%
- Post-emergence action against Poa annua (POAAN) [14]: 100%

SMILES: Cc1cc(C)c(Cc2ccccc2)c(Oc2ncc(F)cn2)n1 [Example I-478, 2-[(3-Benzyl-4,6-dimethyl-2-pyridyl)oxy]-5-fluoropyrimidine]
- Post-emergence action against Amaranthus retroflexus (AMARE) [1]: 100%
- Pre-emergence action against Setaria viridis (SETVI) [2]: 100%
- Pre-emergence action against Poa annua (POAAN) [3]: 100%
- Post-emergence action against Echinochloa crus-galli (ECHCG) [4]: 90%
- Pre-emergence action against Abutilon theophrasti (ABUTH) [5]: 100%
- Pre-emergence action against Stellaria media (STEME) [6]: 100%
- Post-emergence action against Stellaria media (STEME) [7]: 100%
- Pre-emergence action against Matricaria inodora (MATIN) [8]: 100%
- Pre-emergence action against Lolium rigidum (LOLRI) [9]: 100%
- Pre-emergence action against Echinochloa crus-galli (ECHCG) [10]: 100%
- Post-emergence action against Matricaria inodora (MATIN) [11]: 90%
- Pre-emergence action against Amaranthus retroflexus (AMARE) [12]: 100%
- Post-emergence action against Abutilon theophrasti (ABUTH) [13]: 100%
- Post-emergence action against Poa annua (POAAN) [14]: 100%

SMILES: COc1cc(Cc2c(C)cc(C)nc2Oc2ncc(F)cn2)ccc1F [Example I-487]
- Post-emergence action against Amaranthus retroflexus (AMARE) [1]: 100%
- Pre-emergence action against Setaria viridis (SETVI) [2]: 100%
- Pre-emergence action against Poa annua (POAAN) [3]: 100%
- Post-emergence action against Echinochloa crus-galli (ECHCG) [4]: 100%
- Pre-emergence action against Abutilon theophrasti (ABUTH) [5]: 100%
- Pre-emergence action against Stellaria media (STEME) [6]: 100%
- Post-emergence action against Stellaria media (STEME) [7]: 100%
- Pre-emergence action against Matricaria inodora (MATIN) [8]: 100%
- Pre-emergence action against Lolium rigidum (LOLRI) [9]: 100%
- Pre-emergence action against Echinochloa crus-galli (ECHCG) [10]: 100%
- Post-emergence action against Matricaria inodora (MATIN) [11]: 100%
- Pre-emergence action against Amaranthus retroflexus (AMARE) [12]: 100%
- Post-emergence action against Abutilon theophrasti (ABUTH) [13]: 100%
- Post-emergence action against Poa annua (POAAN) [14]: 100%
